In brackets after ≈: the same amount, converted by molar mass. Entries after “also recorded” stand apart in the source; their conditions may differ.
Columns and labels:
B. subtilis pol IIIC [1] = target: T1, B. subtilis pol IIIC (Bacillus subtilis, UniProt P13267); assay: Classical enzyme kinetic analyses (Lineweaver-Burk) with pol IIIC; type: biochemical; details: variable substrate dGTP; Compound 17 at 0, 20, 60 μM; HB-EMAU at 0, 1.6, 4.8 μM
T1 construct: made in house
Description: The variable substrate in the experiments for FIGS. 1A and 1B was dGTP. See text for details.
Classical enzyme kinetic analyses were performed with Compound 17 and pol IIIC in which reaction velocity was measured as a function of each substrate (dGTP) concentration at several inhibitor concentrations (0, 20, and 60 μM). The results are graphed in a double reciprocal plot by the method of Lineweaver and Burk in FIG. 1A and show the effect of varying dGTP.
Compounds of the anilinouracil (AU) family, classical DNA polymerase inhibitors, inhibit pol IIIC strictly by “competitive” inhibition. An example is shown in the double reciprocal plot in FIG. 1B for the compound N3-hydroxybutyl 6-(3′-ethyl-4′-methylanilino) uracil (HB-EMAU), tested at 0, 1.6, and 4.8 μM. Such AU compounds compete with the dGTP substrate for binding to the enzyme (Clements et al., J. Biol. Chem. 250, 522-526 (1975)). “Noncompetive” inhibitors are exemplified by the class of HIV reverse transcriptase inhibitors, 4,5,6,7-tetrahydro-5-methylimidazo[4,5,1-jk][1,4]benzodiazepin-2(1H)-one (TIBO), i.e., TIBO compounds bind a site adjacent to the active site (Spence et al., Science 267, 988-993 (1995)). In contrast, the data in FIG. 1A clearly indicate that Compound 17, a pyrazole carboxylic acid hydrazide, inhibits pol IIIC by an “uncompetitive” mechanism.

B. subtilis pol IIIE [2] = target: T2, B. subtilis pol IIIE (Bacillus subtilis, UniProt O34623); assay: DNA polymerase assay, B. subtilis pol IIIE; type: biochemical; details: for IC50: B. subtilis Pol IIIE IC50, 4 dNTPs, in the presence of all four dNTP substrates
T2 construct: made in house
Description: (§1) Recombinant, purified pol IIIC and pol IIIE from Bacillus subtilis were obtained using known methods (Hammond et al., Gene 98: 29-36 (1991), regarding pol IIIC; Barnes et al., J. Bacteriol. 184, 3834-3838 (2002), regarding pol IIIE). Recombinant, purified pol IIIE from Escherichia coli was obtained from a commercial source (Enzyco, Denver, Colo.). The enzyme assays were performed in 96-well plate format using the same assay mix for all three enzymes. Each 25 μL assay contained 30 mM Tris, pH 7.5, 10 mM magnesium acetate, 4 mM dithiothreitol, 20% glycerol, with 10 μM dATP, dCTP, dGTP and dTTP (3H-labelled at 1.44 Ci/mmole) and 0.4 mg/mL activated calf thymus DNA as substrates. Dilutions of compounds were added to the plate in 1% DMSO (1 μL/well). Assays were initiated by the addition of 0.025 to 0.06 units of enzyme (1 unit is the amount required to incorporate 250 pmoles of [^3H] dTMP in a standard assay), incubated for 10 min at 30° C. and terminated by the addition of 200 μL of cold 10% trichloroacetic acid, 10 mM sodium pyrophosphate. Precipitated labeled DNA was collected on glass fiber filter plates that had been pre-wet with ice cold 1 M HCl, 100 mM sodium pyrophosphate. The plates were washed with the HCl solution followed by ice cold 90% ethanol and then dried and counted in a liquid scintillation counter. The calculated IC50 is the concentration needed to inhibit 50% of the DNA polymerase activity in the presence of all four dNTP substrates. In addition, percent inhibition values are calculated as the percent reduction in the activity of a DMSO (diluent) control.

[3] = tested on: Escherichia coli strain J53; assay: Inhibition of bacterial growth (MIC), Ec; type: cell-based; details: 16 to 18 hours, 37° C.; for MIC: read-out: Minimum Inhibitory Concentration for Bacterial Growth, Ec
Description: (§2) Each compound was assayed against a panel of a strain of Bacillus subtilis, of strains of antibiotic-resistant and sensitive Enterococcus and Staphylococcus species, and of a strain of the Gram-negative bacterium Escherichia coli. Compounds were dissolved in DMSO at 100× the desired highest concentration and added to one well of a 96-well microassay plate. Two-fold serial drug dilutions were made across the plate in DMSO to yield 11 concentrations (usually 80-0.078 μg/mL) plus an untreated control. Drugs were then transferred to fresh plates using 1.5 μL per well. Log phase cultures were diluted to yield a concentration of 1×10^5 colony forming units/mL in either LB or BHI medium and transferred to the plates containing drug for a final volume of 150 μL. Each well, including the DMSO controls, contained a final concentration of 1% DMSO. Plates were incubated with shaking at 37° C. for 16 to 18 hours. Cell growth was determined by measuring optical density (570 nm, 1 cm path length) in a microplate reader. MIC (minimum inhibitory concentration) is equivalent to the lowest concentration at which growth is not observed. The bacterial strains and MIC determinations have been well characterized and are described elsewhere (Tarantino et al., Antimicrob. Agents Chemother., 43: 1982-1987 (1999); Daly et al., Antimicrob. Agents Chemother., 44: 2217-2221 (2000)).

test strains of bacteria = assay: Inhibition of bacterial growth, whole panel of test strains; type: cell-based
Description: as §2

B. subtilis pol IIIC [4] = target: T1, B. subtilis pol IIIC; assay: DNA polymerase assay, B. subtilis pol IIIC; type: biochemical; details: for inhibition at 80 µg/mL: read-out: Percent Enzymatic Inhibition B. subtilis pol IIIC
Description: as §1, with “Each 25 μL assay contained 30 mM Tris, pH 7.5, 10 mM magnesium acetate, 4 mM dithiothreitol, 20% glycerol, with 10 μM dATP, dCTP, dGTP and dTTP (3H-labelled at 1.44 Ci/mmole) and 0.4 mg/mL activated calf thymus DNA as substrates.” left out, “The calculated IC50 is the concentration needed to inhibit 50% of the DNA polymerase activity in the presence of all four dNTP substrates.” left out

[5] = tested on: Staphylococcus aureus strain IP 8; assay: Inhibition of bacterial growth (MIC), Sa; type: cell-based; details: 37° C.; for MIC: IP8, 16 to 18 hours, read-out: Minimum Inhibitory Concentration for Bacterial Growth, Sa
Description: as §2

[6] = tested on: vancomycin-resistant Enterococcus strain B42762; assay: Inhibition of bacterial growth (MIC), VRE; type: cell-based; details: 16 to 18 hours, 37° C.; for MIC: VRE, read-out: Minimum Inhibitory Concentration for Bacterial Growth, VRE
Description: as §2

[7] = tested on: E. faecium clinical isolate; assay: Inhibition of bacterial growth (MIC), Efcm; type: cell-based; details: 16 to 18 hours, 37° C.; for MIC: Enterococcus faecium, read-out: Minimum Inhibitory Concentration for Bacterial Growth, Efcm
Description: as §2

[8] = tested on: Bacillus subtilis strain BD54; assay: Inhibition of bacterial growth (MIC), Bs; type: cell-based; details: 16 to 18 hours, 37° C.; for MIC: read-out: Minimum Inhibitory Concentration for Bacterial Growth, Bs
Description: as §2

[9] = tested on: methicillin-resistant S. aureus strain 1094; assay: Inhibition of bacterial growth (MIC), MRSA; type: cell-based, Staphylococcus aureus; details: 16 to 18 hours, 37° C.; for MIC: Staphylococcus aureus, MRSA, read-out: Minimum Inhibitory Concentration for Bacterial Growth, MRSA
Description: as §2

E. coli pol IIIE = target: T3, E. coli pol IIIE (Escherichia coli, UniProt P10443); assay: DNA polymerase assay, E. coli pol IIIE; type: biochemical; details: 80 μg/mL (190-260 μM) final concentration, all four dNTPs
T3 construct: purchased Enzyco, Denver, Colo
Description: as §1

S. aureus Smith strain = assay: Inhibition of bacterial growth (MIC), Sm; type: cell-based, Staphylococcus aureus; details: 16 to 18 hours, 37° C.; for MIC: Staphylococcus aureus, read-out: Minimum Inhibitory Concentration for Bacterial Growth, Sm
Description: as §2

[10] = tested on: Enterococcus faecalis strain 29212; assay: Inhibition of bacterial growth (MIC), Efcl; type: cell-based; details: 16 to 18 hours, 37° C.; for MIC: read-out: Minimum Inhibitory Concentration for Bacterial Growth, Efcl
Description: as §2

B. subtilis pol IIIE [11] = target: T2, B. subtilis pol IIIE; assay: DNA polymerase assay, B. subtilis pol IIIE; type: biochemical
[12] = 80 μg/mL (190-260 μM) final concentration, all four dNTPs
[13] = B. subtilis Pol IIIC IC50, 4 dNTPs, in the presence of all four dNTP substrates
[14] = B. subtilis Pol IIIC IC50, −dATP, in the absence of dATP
[15] = B. subtilis Pol IIIC IC50, −dCTP, in the absence of dCTP
[16] = B. subtilis Pol IIIC IC50, −dGTP, in the absence of dGTP
[17] = B. subtilis Pol IIIE IC50, −dATP, in the absence of dATP
[18] = B. subtilis Pol IIIE IC50, −dCTP, in the absence of dCTP
[19] = B. subtilis Pol IIIE IC50, −dGTP, in the absence of dGTP

T2 sequence (O34623 whole entry): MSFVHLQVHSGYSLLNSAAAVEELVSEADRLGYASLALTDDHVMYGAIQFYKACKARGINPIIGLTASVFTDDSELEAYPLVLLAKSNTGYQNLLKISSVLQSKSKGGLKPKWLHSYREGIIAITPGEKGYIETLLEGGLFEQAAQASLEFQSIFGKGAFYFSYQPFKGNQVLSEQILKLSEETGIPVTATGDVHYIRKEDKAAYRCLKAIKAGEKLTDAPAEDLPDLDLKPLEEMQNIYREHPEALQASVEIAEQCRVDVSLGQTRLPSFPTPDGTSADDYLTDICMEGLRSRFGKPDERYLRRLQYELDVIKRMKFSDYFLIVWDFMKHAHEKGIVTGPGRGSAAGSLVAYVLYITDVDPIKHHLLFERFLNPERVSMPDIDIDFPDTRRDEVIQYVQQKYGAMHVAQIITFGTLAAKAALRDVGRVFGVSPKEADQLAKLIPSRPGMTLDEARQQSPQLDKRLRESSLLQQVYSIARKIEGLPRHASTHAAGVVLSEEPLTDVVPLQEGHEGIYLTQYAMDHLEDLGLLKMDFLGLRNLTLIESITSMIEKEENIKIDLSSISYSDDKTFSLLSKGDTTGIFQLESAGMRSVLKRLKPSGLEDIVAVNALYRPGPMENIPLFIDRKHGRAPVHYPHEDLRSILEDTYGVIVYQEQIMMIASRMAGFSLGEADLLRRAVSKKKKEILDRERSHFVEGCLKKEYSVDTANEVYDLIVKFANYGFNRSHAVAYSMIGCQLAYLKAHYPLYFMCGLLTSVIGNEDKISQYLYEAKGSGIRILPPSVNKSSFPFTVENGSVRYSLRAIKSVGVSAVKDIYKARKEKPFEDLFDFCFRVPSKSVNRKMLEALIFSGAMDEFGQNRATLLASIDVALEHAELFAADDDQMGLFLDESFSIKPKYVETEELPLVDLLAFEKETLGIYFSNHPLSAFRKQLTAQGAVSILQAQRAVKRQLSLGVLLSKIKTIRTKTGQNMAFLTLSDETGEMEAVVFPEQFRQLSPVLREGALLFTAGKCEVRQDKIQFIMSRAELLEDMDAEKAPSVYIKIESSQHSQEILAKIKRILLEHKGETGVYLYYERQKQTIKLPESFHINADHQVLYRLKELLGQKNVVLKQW
T1 sequence (P13267 whole entry): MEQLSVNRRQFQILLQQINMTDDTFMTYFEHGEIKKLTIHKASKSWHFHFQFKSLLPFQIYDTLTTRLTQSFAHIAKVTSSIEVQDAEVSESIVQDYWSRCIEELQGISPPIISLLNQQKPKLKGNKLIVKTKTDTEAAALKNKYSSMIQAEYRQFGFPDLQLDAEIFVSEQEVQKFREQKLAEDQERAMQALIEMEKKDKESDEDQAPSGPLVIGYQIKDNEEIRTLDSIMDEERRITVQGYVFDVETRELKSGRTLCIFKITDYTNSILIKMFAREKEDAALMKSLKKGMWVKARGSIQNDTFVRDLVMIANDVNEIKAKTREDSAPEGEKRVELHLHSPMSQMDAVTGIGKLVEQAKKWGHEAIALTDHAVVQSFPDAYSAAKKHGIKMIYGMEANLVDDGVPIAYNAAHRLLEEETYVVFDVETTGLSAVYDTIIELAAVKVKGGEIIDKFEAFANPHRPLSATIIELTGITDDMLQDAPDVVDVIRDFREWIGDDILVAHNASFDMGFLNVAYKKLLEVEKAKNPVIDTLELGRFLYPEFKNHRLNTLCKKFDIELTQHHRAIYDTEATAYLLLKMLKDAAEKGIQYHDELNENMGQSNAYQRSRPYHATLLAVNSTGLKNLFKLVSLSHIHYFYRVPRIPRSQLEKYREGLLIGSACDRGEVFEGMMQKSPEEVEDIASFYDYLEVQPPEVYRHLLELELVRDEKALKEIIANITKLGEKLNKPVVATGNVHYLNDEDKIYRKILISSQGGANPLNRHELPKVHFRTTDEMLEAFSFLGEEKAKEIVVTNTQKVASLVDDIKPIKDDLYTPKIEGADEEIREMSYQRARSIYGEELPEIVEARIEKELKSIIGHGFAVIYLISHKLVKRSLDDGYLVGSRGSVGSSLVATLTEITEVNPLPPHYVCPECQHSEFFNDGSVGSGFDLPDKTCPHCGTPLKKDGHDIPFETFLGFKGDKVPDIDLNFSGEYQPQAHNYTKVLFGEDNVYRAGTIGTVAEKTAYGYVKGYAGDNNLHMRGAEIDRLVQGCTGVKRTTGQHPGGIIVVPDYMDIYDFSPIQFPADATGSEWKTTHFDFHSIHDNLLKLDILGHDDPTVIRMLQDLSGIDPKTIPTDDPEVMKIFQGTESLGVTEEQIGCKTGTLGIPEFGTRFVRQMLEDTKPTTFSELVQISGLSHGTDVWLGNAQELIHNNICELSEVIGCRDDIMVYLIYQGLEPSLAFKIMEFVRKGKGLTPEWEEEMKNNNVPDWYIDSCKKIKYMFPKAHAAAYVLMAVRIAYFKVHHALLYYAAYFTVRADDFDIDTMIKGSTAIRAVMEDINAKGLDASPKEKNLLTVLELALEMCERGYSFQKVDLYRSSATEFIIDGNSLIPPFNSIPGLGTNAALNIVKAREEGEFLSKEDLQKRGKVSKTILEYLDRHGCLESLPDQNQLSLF
T3 sequence (P10443 whole entry): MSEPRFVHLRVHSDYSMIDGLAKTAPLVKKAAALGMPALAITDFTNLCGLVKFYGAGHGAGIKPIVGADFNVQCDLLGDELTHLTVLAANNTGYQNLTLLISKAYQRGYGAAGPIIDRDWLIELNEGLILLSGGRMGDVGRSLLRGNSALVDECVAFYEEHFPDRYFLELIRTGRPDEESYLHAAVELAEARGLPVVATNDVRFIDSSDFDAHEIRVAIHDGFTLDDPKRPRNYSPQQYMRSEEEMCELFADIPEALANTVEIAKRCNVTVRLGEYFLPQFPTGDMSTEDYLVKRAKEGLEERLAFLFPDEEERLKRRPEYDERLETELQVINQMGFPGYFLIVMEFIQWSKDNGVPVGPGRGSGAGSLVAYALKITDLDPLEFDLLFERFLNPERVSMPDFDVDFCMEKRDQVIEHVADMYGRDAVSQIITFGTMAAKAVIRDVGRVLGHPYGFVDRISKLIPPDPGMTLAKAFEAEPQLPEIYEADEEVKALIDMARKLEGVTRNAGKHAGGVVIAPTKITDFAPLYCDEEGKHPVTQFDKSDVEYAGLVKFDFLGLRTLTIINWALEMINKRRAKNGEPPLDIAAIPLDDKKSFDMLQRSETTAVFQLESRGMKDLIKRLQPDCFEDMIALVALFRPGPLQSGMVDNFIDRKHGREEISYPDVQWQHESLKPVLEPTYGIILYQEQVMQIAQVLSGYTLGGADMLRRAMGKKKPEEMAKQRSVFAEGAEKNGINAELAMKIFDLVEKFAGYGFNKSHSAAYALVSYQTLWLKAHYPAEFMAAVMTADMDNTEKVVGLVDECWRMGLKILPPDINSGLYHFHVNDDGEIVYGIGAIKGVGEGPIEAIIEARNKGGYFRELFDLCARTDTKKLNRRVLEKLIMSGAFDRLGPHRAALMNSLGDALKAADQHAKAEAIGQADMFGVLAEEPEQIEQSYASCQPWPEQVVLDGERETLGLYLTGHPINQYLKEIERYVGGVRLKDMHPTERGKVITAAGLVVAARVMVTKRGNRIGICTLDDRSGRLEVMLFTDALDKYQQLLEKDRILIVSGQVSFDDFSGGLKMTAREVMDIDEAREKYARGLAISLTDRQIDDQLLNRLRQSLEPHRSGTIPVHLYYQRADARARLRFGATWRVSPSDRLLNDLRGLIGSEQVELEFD

Compound | Inhibition of bacterial growth, result in words (rank of MIC values) (test strains of bacteria) | IC50 (B. subtilis pol IIIE [2]) | MIC [3] | inhibition at 80 µg/mL (B. subtilis pol IIIC [4]; [12]) | IC50 (B. subtilis pol IIIC [4]; [13]) | IC50 (B. subtilis pol IIIC [4]; [14]) | IC50 (B. subtilis pol IIIC [4]; [15]) | IC50 (B. subtilis pol IIIC [4]; [16]) | MIC [5] | IC50 (B. subtilis pol IIIE [11]; [17]) | IC50 (B. subtilis pol IIIE [11]; [18]) | IC50 (B. subtilis pol IIIE [11]; [19]) | MIC [6] | MIC [7] | MIC [8] | MIC [9] | MIC (S. aureus Smith strain) | MIC [10] | further results
CCc1cc(Nc2cc(=O)n(CCCCO)c(=O)[nH]2)ccc1C [HB-EMAU, N3-hydroxybutyl 6-(3′-ethyl-4′-methylanilino) uracil, reference compound] |  |  |  |  |  |  |  |  |  |  |  |  |  |  |  |  |  |  | Mechanism of inhibition of pol IIIC (double reciprocal plot) (B. subtilis pol IIIC [1]): competitive inhibition mechanism
CCOc1cccc(-c2cc(C(=O)NN=Cc3cccc(OC)c3O)[nH]n2)c1 [Compound 7] | able to inhibit growth |  |  |  |  |  |  |  |  |  |  |  |  |  |  |  |  |  | Percent Enzymatic Inhibition B. subtilis pol IIIE (B. subtilis pol IIIE [2]; [12]): not sufficient to show a significant inhibition; also recorded: Inactive; Minimum Inhibitory Concentration for Bacterial Growth, Ec [3]: >80 µg/mL; Percent Enzymatic Inhibition B. subtilis pol IIIC (B. subtilis pol IIIC [4]; [12]): not sufficient to show a significant inhibition; also recorded: Inactive; Minimum Inhibitory Concentration for Bacterial Growth, Sa ([5]; 16 to 18 hours): 30 µg/mL; Minimum Inhibitory Concentration for Bacterial Growth, VRE [6]: >80 µg/mL; Minimum Inhibitory Concentration for Bacterial Growth, Efcm [7]: >80 µg/mL; Minimum Inhibitory Concentration for Bacterial Growth, Bs [8]: 80 µg/mL; Minimum Inhibitory Concentration for Bacterial Growth, MRSA [9]: 30 µg/mL; Percent Enzymatic Inhibition E. coli pol IIIE (E. coli pol IIIE): not sufficient to show a significant inhibition; also recorded: Inactive; Minimum Inhibitory Concentration for Bacterial Growth, Sm (S. aureus Smith strain): 40 µg/mL; Minimum Inhibitory Concentration for Bacterial Growth, Efcl [10]: >80 µg/mL
COc1ccc(-c2cc(C(=O)NN=Cc3ccc(OC)c(OC)c3)[nH]n2)cc1 [Compound 18] | third place | 278 µM | > 80 µg/mL | > 20% | 912 µM | 23 µM | 6.5 µM | 5.5 µM | 5 µg/mL (≈ 13.1 µM) | 345 µM | > 1000 µM | > 1000 µM | 20 µg/mL (≈ 52.6 µM) | 20 µg/mL (≈ 52.6 µM) | 2.5 µg/mL (≈ 6.57 µM) | 10 µg/mL (≈ 26.3 µM) | 5 µg/mL (≈ 13.1 µM) | 40 µg/mL (≈ 105 µM) | inhibition at 80 µg/mL (B. subtilis pol IIIE [2]; 80 μg/mL (190-260 μM) final concentration, all four dNTPs, read-out: Percent Enzymatic Inhibition B. subtilis pol IIIE): > 20%
COc1cc(C=NNC(=O)c2cc(-c3ccccc3)n[nH]2)cc(OC)c1OC [Compound 1] | second | 166 µM | > 80 µg/mL | 14.3% | 188 µM | 10 µM | 44 µM | 14 µM | 3 µg/mL (≈ 7.89 µM) | 75 µM | 62 µM | 51 µM | 20 µg/mL (≈ 52.6 µM) | 20 µg/mL (≈ 52.6 µM) | 3 µg/mL (≈ 7.89 µM) | 10 µg/mL (≈ 26.3 µM) | 5 µg/mL (≈ 13.1 µM) | 10 µg/mL (≈ 26.3 µM) | inhibition at 80 µg/mL (E. coli pol IIIE; read-out: Percent Enzymatic Inhibition E. coli pol IIIE): 0.4%
